Entries after “also recorded” stand apart in the source; their conditions may differ.
Key:
[1] = system: Human dermal fibroblasts (HDF); experiment: Collagen protein in conditioned media (Sircol Collagen Assay) of human dermal fibroblasts; type: cell-based; conditions: for collagen production (collagen levels secreted into the media): HDF treated at 1 mM, result in words
Description: (§1) The collagen protein levels in the conditioned media were evaluated using the Sircol™ Collagen Assay (Biocolor, Antrim, UK) according to the manufacturer's instructions. […] After discarding the media, the cells were washed with 500 μL of phosphate-buffered saline (PBS), then incubated in 1 mL of serum-free media for another 24 hours. A 1.0 mL media sample (either conditioned media or fresh media as a negative control) was transferred to a microcentrifuge tube, mixed with 100 μL of collagen isolation and concentration reagent, and incubated overnight at 4° C. The samples were centrifuged at 13,000×g for 10 minutes at 4° C., and the supernatant was carefully removed using a pipette without disturbing the pellet. Each tube was then added with 500 μL of Sircol dye reagent, inverted five times, and shaken at room temperature for 30 minutes. After centrifugation, the supernatant was discarded, and the pellet was washed with 500 μL of cold acid-salt washing reagent, followed by another centrifugation step. The pellet was then dissolved in 250 μL of alkali reagent, and a 200 μL portion was transferred to a 96-well plate. The optical density of the solution was read at 555 nm using a Spectrostar Nano microplate reader (BMG LABTECH GmbH, Ortenberg, Germany).

human dermal fibroblasts = experiment: Wound healing (wound closure) assay, Oris cell migration kit; type: cell-based; conditions: HDF
Description: Wound closure analysis was performed using the Oris™ Universal Cell Migration Assembly kit (Platinus Technologies, WI, USA) according to the manufacturer's instructions. The Oris™ stoppers were inserted into each well of the Oris™-compatible 96-well plate, and the plate was inverted to check for complete stopper attachment. A suspension of human dermal fibroblasts in IMDM was added to each well (1×10^4 cells in 100 μL per well) and incubated for 12 hours to allow cell attachment. Then, the stoppers were removed using the stopper tool, and the medium was aspirated using a pipette. The wells were gently washed with 100 μL PBS to remove unattached cells, and the attached cells were treated with drugs in 100 μL culture medium for the specified time, respectively. Images of the wounds were obtained using a phase-contrast microscope (Eclipse TS 100, Nikon Instruments Inc., Melville, NY, USA). The wound areas in the images were quantified using the NIH Image J program. Wound closure (%) was calculated using the following equation: Wound closure (%)=[(A0−At)/A0]×100, where A0 is the area of the original wound and At is the wound area measured at the specified time.

[2] = system: Human dermal fibroblasts (HDF); conditions: 48 h
Description: (§2) Human dermal fibroblasts (HDF) extracted from adult skin were obtained from Cascade Biologics (Portland, OR, USA), and human articular chondrocytes (HAC), human follicle dermal papilla cells (HFCPC), human aortic endothelial cells (HAoEC), and human osteoblasts (HOB) were obtained from PromoCell (Heidelberg, Germany). The cells were cultured in a closed incubator at 37° C. in humidified air comprising 5% CO2. The growth medium for HDF consisted of Iscove's Modified Dulbecco's Medium (IMDM) (Gibco BRL, Grand Island, NY, USA) supplemented with 10% fetal bovine serum (Hyclone, South Logan, UT) and 1% antibiotics (100 U·mL^−1 penicillin, 0.1 mg·mL^−1 streptomycin).
(§3) The cell viability was evaluated using the MTT assay. Briefly, HDF (1×10^4 cells per well), HAC (5×10^3 cells per well), HFDPC (1×10^4 cells per well), HAoEC (5×10^3 cells per well), and HOB (2×10^3 cells per well) were cultured in growth media in a 96-well culture plate for 24 hours, followed by treatment with each drug for 48 hours. After discarding the media, the cells were incubated at 37° C. for 2 hours in fresh growth media (100 μL) containing 1 mg·mL^−1 MTT (Amresco, Solon, OH, USA). The media was removed by aspiration, and the formazan dye accumulated inside the cells was dissolved in 100 μL of dimethyl sulfoxide. The absorbance of the solution was measured at 570 nm using a Spetrostar Nano microplate reader (BMG LABTECH GmbH, Ortenberg, Germany).

[3] = system: Human dermal fibroblasts (HDF); experiment: Cell viability / proliferation (MTT assay) in human dermal fibroblasts; conditions: for cell proliferation (MTT reduction): concentration series (FIGS. 13a to 13f)
Description: as §2, §3

[4] = system: human articular chondrocytes (HAC); experiment: Collagen protein (Sircol Collagen Assay) in human articular chondrocytes; type: cell-based; conditions: for increase in collagen production compared to the control: absence of TGF-β1
Description: as §1

[5] = system: human articular chondrocytes (HAC); experiment: Cell viability / proliferation (MTT assay) in human articular chondrocytes; type: cell-based; conditions: for cell viability compared to the control group: concentration series (FIGS. 13g to 13l)
Description: The cell viability was evaluated using the MTT assay.

[6] = system: human aortic endothelial cells (HAoEC); experiment: Collagen protein (Sircol Collagen Assay) in human aortic endothelial cells; type: cell-based; conditions: 1 mM
Description: as §1

[7] = system: human follicle dermal papilla cells (HFCPC); experiment: Collagen protein (Sircol Collagen Assay) in human follicle dermal papilla cells; type: cell-based; conditions: 1 mM
Description: as §1

human osteoblasts (HOB) = experiment: Collagen protein (Sircol Collagen Assay) in human osteoblasts; type: cell-based; conditions: 1 mM
Description: as §1

[8] = HDF, 1 mM each, absence of TGF-β1 (FIG. 5a)
[9] = HDF, concentration series (FIGS. 13a to 13f)

Compound: O=C1O[C@H]([C@@H](O)CO)C(O)=C1O [ascorbic acid, reference compound]
- collagen production (collagen levels secreted into the media) [1]: increased collagen production
- increase in collagen production compared to the control [1, 8]: 23.1%
- collagen production ([1]; HDF, 3 and 5 mM): significantly reduced
- concentrations at which collagen production increased ([1]; HDF, non-cytotoxic concentrations (FIG. 10b)): 10 to 1000 µM
- change in wound closure induced by treatment (human dermal fibroblasts; 24 hours after treatment): 9.1%
- change in wound closure induced by treatment (human dermal fibroblasts; after 12 hours of treatment): 2.5%
- concentrations with no effect on cell viability [2]: ≤ 1000 µM

Compound: C[C@H]1[C@H](C)CC[C@]2(C(=O)O)CC[C@]3(C)C(=CC[C@@H]4[C@@]5(C)C[C@@H](O)[C@H](O)[C@@](C)(CO)[C@@H]5CC[C@]43C)[C@H]12 [asiatic acid]
- collagen production ([1]; HDF, 10 μM): decreased
- concentrations that reduced cell viability [2]: above 300 μM
- concentrations with no effect on cell viability [2]: below 100 μM

Compound: Cl.N[C@H]1C(O)O[C@H](CO)[C@@H](O)[C@@H]1O (stereo partly drawn) [glucosamine, glucosamine HCl, reference compound]
- cell proliferation (MTT reduction) ([3]; HDF): did not affect cell proliferation
- collagen production ([4]; 0.5 mM): increased collagen production
- increase in collagen production compared to the control ([4]; 0.5 mM): 147.6%
- increase in collagen production compared to the control ([1]; HDF, 0.5 mM, absence of TGF-β1): 118.6%
- collagen production [1, 9]: increased collagen production
- cell viability ([5]; HAC, 0.5 mM): without affecting cell viability

Compound: Cl.NCC(N)=O [glycinamide, Glycinamide HCl]
- cell viability ([3]; HDF treated at 1 mM, result in words): no significant change in cell viability
- cell proliferation (MTT reduction) ([3]; HDF): did not affect cell proliferation
- collagen production [6]: most effective among the amidated amino acids
- collagen production ([4]; 0.5 mM): enhancing collagen production
- increase in collagen production compared to the control ([4]; 0.5 mM): 181.3%
- collagen production ([4]; 1 mM): most effective among the amidated amino acids
- increase in collagen production (greatest effect) ([4]; 2 mM): 238.6%
- collagen production [7]: most effective among the amidated amino acids
- collagen production (collagen levels secreted into the media) ([1]; HCl): most effective; also recorded: highest collagen production-promoting effect
- collagen production (collagen levels secreted into the media) ([1]; listed as glycylamine, HCl): superior collagen-promoting effect compared to all free amino acids
- change in collagen production, individual treatment ([1]; HDF, 100 μM): 27.2%
- increase in collagen production compared to the control ([1]; HDF, 0.5 mM, absence of TGF-β1): 139.2%
- change in collagen production, individual treatment ([1]; HDF, 1000 μM): 75.7%
- increase in collagen production compared to the control [1, 8]: 68.2%
- change in collagen production induced by individual treatment ([1]; HDF, FIG. 7b, concentration not given): 67.4%
- collagen production [1, 9]: increased collagen production in a concentration-dependent manner
- change in wound closure induced by treatment (human dermal fibroblasts; 24 hours after treatment): 19.2%
- change in wound closure induced by treatment (human dermal fibroblasts; after 12 hours of treatment): 6.3%
- wound closure (human dermal fibroblasts; treated alone, up to 48 hours (FIG. 8b)): promoted wound closure
- cell viability compared to the control group ([5]; HAC): slightly but significantly increased cell viability
- collagen production (human osteoblasts (HOB)): most effective among the amidated amino acids
- collagen production effect (human osteoblasts (HOB)): 433.8%

Compound: C[C@H]1[C@H](C)CC[C@]2(C(=O)O)CC[C@]3(C)C(=CC[C@@H]4[C@@]5(C)C[C@@H](O)[C@H](O)[C@@](C)(CO)[C@@H]5[C@H](O)C[C@]43C)[C@H]12 [madecassic acid]
- collagen production ([1]; HDF, 10 μM): decreased
- concentrations that reduced cell viability [2]: above 300 μM
- concentrations with no effect on cell viability [2]: below 100 μM

Compound: TGF-β1: Recombinant human TGF-β1 protein purchased from R&D Systems
- cell proliferation compared to the control ([3]; HDF (FIGS. 14a to 14d)): better cell proliferation compared to the control
- cell proliferation (MTT reduction) ([3]; HDF): increased the proliferation
- increase in number of viable cells compared to the control ([3]; HDF, TGF-β1 10 ng mL^−1, or ascorbic acid 1 mM + glycinamide 1 mM (FIG. 5b)): 44.5%
- collagen production ([4]; TGF-β1 10 ng mL^−1 alone): effect of enhancing collagen production
- collagen production ([4]; TGF-β1 up to 10 ng mL-1): improved collagen production in a dose-dependent manner
- collagen production ([1]; HDF, TGF-β1 10 ng mL^−1 alone): effect of enhancing collagen production
- collagen production [1, 9]: collagen production enhancement effect that surpassed its cell proliferation effect
- wound closure compared to the control (human dermal fibroblasts; 12 and 24 hours post-treatment): significantly improved wound closure
- cell proliferation compared to the control ([5]; HAC (FIGS. 14a to 14d)): better cell proliferation compared to the control
- cell viability compared to the control group ([5]; HAC): slightly but significantly increased cell viability

Source: patent US20260027071A1, “COMPOSITION FOR PROMOTING COLLAGEN PRODUCTION COMPRISING AMIDATED AMINO ACID” (KYUNGPOOK NATIONAL UNIVERSITY INDUSTRY-ACADEMIC COOPERATION …, priority 2022, published 2026)
